In patent US20230092890A1, “1, 3, 4-Oxadiazole derivative compounds as histone deacetylase 6 inhibitor, and the pharmaceutical composition comprising the same” (Chong Kun Dang Pharmaceutical Corp., priority 2019, published 2023) one finds IC50 data, which are given here for 18 molecules.

Test [1] has as its target T1, HDAC6 human recombinant (Homo sapiens, UniProt Q9UBN7).
T1 construct: purchased Calbiochem 382180
T1 sequence (Q9UBN7 1-1215): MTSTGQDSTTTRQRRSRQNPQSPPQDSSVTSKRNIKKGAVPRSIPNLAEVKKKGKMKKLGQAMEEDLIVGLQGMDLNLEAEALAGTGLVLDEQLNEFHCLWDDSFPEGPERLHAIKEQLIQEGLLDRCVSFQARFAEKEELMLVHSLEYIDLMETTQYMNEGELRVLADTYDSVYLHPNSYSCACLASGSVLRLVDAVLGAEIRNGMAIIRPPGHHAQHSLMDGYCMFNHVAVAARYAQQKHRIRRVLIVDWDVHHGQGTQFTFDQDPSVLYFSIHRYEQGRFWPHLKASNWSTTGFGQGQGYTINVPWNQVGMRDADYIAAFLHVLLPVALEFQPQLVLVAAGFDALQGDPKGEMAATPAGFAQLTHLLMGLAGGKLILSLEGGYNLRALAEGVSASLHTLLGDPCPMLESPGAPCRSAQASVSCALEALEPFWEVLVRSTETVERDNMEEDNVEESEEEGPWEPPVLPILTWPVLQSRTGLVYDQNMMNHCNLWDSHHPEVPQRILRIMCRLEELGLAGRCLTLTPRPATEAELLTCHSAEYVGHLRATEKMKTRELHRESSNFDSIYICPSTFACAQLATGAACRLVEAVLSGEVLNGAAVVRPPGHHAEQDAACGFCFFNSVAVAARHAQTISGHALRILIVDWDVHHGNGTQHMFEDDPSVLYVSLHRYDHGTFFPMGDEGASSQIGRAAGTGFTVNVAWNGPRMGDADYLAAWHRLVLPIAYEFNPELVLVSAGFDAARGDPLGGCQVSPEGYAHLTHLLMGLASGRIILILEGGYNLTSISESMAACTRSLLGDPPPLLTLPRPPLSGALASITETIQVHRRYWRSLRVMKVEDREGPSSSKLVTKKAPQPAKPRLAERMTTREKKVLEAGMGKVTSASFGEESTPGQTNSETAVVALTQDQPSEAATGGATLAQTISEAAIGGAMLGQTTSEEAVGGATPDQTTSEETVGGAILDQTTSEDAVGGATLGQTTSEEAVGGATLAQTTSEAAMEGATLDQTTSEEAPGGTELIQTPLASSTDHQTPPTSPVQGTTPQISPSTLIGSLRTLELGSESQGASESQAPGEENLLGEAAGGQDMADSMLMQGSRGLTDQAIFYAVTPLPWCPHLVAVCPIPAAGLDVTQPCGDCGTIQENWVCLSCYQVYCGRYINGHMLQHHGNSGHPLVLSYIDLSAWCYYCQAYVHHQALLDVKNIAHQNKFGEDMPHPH
In words: HDAC enzyme activity inhibition (in vitro), HDAC6 assay. The note with it: samples at 0.1, 1, 10, 100 and 1000 nM; 37° C. 60 minutes; fluorescence Ex 390, Em 460; read-out: HDAC6 IC50. The class given is biochemical. Summed up: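 HDAC6 human recombinant enzyme with fluorimetric substrate; […]. Reaction 60 min at 37° C, then developer 30 min at 37° C; fluorescence read at Ex 390/Em 460.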

Test [2] addresses T2, HDAC1 (Homo sapiens, UniProt Q13547).
T2 construct: purchased Enzolifesciences BML-AK511
The experiment in a line: HDAC enzyme activity inhibition (in vitro), HDAC1 Fluorimetric Drug Discovery Assay Kit. The class given is biochemical. The following applies: samples at 100, 1000 and 10000 nM; 37° C. 60 minutes; fluorescence Ex 390, Em 460; read-out: HDAC1 IC50. Summed up:
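Compound incubated with enzyme 60 min at 37° C, then developer 30 min at 37° C; fluorescence read at Ex 390/Em 460. HDAC1 via fluorimetric kit, compounds at 100, 1000 and 10000 nM; HDAC6 human recombinant, compounds at 0.1, 1, 10, 100 and 1000 nM.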

T2 sequence (Q13547 whole entry): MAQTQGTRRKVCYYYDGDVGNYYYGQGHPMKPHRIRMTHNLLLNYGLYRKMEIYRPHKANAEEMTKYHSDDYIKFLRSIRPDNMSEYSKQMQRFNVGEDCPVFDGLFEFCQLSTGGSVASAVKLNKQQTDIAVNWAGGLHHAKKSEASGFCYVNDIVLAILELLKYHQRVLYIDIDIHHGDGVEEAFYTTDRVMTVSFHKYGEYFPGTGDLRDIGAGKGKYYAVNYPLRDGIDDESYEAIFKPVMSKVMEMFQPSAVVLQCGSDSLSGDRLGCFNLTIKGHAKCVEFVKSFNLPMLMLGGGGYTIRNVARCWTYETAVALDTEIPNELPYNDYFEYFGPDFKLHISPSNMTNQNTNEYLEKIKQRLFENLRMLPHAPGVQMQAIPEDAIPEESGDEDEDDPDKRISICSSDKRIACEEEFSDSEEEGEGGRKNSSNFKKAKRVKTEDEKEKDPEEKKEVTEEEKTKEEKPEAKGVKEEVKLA

As to `Cc1noc(C)c1-c1ccc2c(c1)n(C1CCN(C)CC1)c(=O)n2Cc1ccc(-c2nnc(C(F)F)o2)cn1` [Compound 210, 1-((5-(5-(difluoromethyl)-1,3,4-oxadiazole-2-yl)pyridine-2-yl)methyl)-5-(3,5-dimethylisoxazole-4-yl)-3-(1-methylpiperidine-4-yl)-1,3-dihydro-2H-benzo[d]imidazole-2-one], the IC50 in test [1] is 38 nM; in test [2], greater than 10000 nM.
As to `CN1CCC(n2c(=O)n(Cc3ccc(-c4nnc(C(F)F)o4)cn3)c3ccc(-c4cnoc4)cc32)CC1` [Compound 211, 1-((5-(5-(difluoromethyl)-1,3,4-oxadiazole-2-yl)pyridine-2-yl)methyl)-5-(isoxazole-4-yl)-3-(1-methylpiperidine-4-yl)-1,3-dihydro-2H-benzo[d]imidazole-2-one], the IC50 was 48 nM in test [1] and greater than 10000 nM in test [2].
As to `Cn1c(=O)n(Cc2ccc(-c3nnc(C(F)F)o3)cn2)c2ccc(-c3cccc4[nH]ccc34)cc21` [Compound 212, 1-((5-(5-(difluoromethyl)-1,3,4-oxadiazole-2-yl)pyridine-2-yl)methyl)-5-(1H-indole-4-yl)-3-methyl-1,3-dihydro-2H-benzo[d]imidazole-2-one], the concentration for half-maximal inhibition (IC50) was 10 nM in test [1] and greater than 10000 nM in test [2].
Take `CN1CCC(n2c(=O)n(Cc3ccc(-c4nnc(C(F)F)o4)cn3)c3cc(Cl)ccc32)CC1` [Compound 213, 5-chloro-3-((5-(5-(difluoromethyl)-1,3,4-oxadiazole-2-yl)pyridine-2-yl)methyl)-1-(1-methylpiperidine-4-yl)-1,3-dihydro-2H-benzo[d]imidazole-2-one]: the figures for the IC50 in test [1] and in test [2] were 14 nM and greater than 10000 nM, respectively.
`CC(C)N1CCC(n2c(=O)n(Cc3ccc(-c4nnc(C(F)F)o4)cn3)c3cc(Cl)ccc32)CC1` [Compound 214, 5-chloro-3-((5-(5-(difluoromethyl)-1,3,4-oxadiazole-2-yl)pyridine-2-yl)methyl)-1-(1-isopropylpiperidine-4-yl)-1,3-dihydro-2H-benzo[d]imidazole-2-one]: the 50% inhibitory concentration (IC50) was 15 nM in test [1] and greater than 10000 nM in test [2].
For `CC(=O)N1CCC(n2c(=O)n(Cc3ccc(-c4nnc(C(F)F)o4)cn3)c3cc(Cl)ccc32)CC1` [Compound 215, 1-(1-acetylpiperidine-4-yl)-5-chloro-3-((5-(5-(difluoromethyl)-1,3,4-oxadiazole-2-yl)pyridine-2-yl)methyl)-1,3-dihydro-2H-benzo[d]imidazole-2-one], in that order: 20 nM and greater than 10000 nM.
As for `CS(=O)(=O)N1CCC(n2c(=O)n(Cc3ccc(-c4nnc(C(F)F)o4)cn3)c3cc(Cl)ccc32)CC1` [Compound 216, 5-chloro-3-((5-(5-(difluoromethyl)-1,3,4-oxadiazole-2-yl)pyridine-2-yl)methyl)-1-(1-(methylsulfonyl)piperidine-4-yl)-1,3-dihydro-2H-benzo[d]imidazole-2-one], the half-maximal inhibitory concentration (IC50) was 18 nM in test [1] and greater than 10000 nM in test [2].
With `CN1CCC(n2c(=O)n(Cc3ccc(-c4nnc(C(F)F)o4)cn3)c3cc(F)c(-c4cccc5[nH]ccc45)cc32)CC1` [Compound 217, 1-((5-(5-(difluoromethyl)-1,3,4-oxadiazole-2-yl)pyridine-2-yl)methyl)-6-fluoro-5-(1H-indole-4-yl)-3-(1-methylpiperidine-4-yl)-1,3-dihydro-2H-benzo[d]imidazole-2-one], the IC50 was 6 nM in test [1] and greater than 10000 nM in test [2].
For `Cc1ccc(-c2ccc3c(c2)n(C)c(=O)n3Cc2ccc(-c3nnc(C(F)F)o3)cn2)o1` [Compound 218, 1-((5-(5-(difluoromethyl)-1,3,4-oxadiazole-2-yl)pyridine-2-yl)methyl)-3-methyl-5-(5-methylfuran-2-yl)-1,3-dihydro-2H-benzo[d]imidazole-2-one], the IC50 is 44 nM in test [1] and greater than 10000 nM in test [2].
Turning to `Cn1c(=O)n(Cc2ccc(-c3nnc(C(F)F)o3)cn2)c2ccc(-c3ccsc3)cc21` [Compound 219, 1-((5-(5-(difluoromethyl)-1,3,4-oxadiazole-2-yl)pyridine-2-yl)methyl)-3-methyl-5-(thiophene-3-yl)-1,3-dihydro-2H-benzo[d]imidazole-2-one], the values for the half-inhibitory concentration (IC50) in test [1] and in test [2] were 33 nM and greater than 10000 nM, respectively.
For `Cn1c(=O)n(Cc2ccc(-c3nnc(C(F)F)o3)cn2)c2ccc(-c3ccc(S(C)(=O)=O)cc3)cc21` [Compound 220, 1-((5-(5-(difluoromethyl)-1,3,4-oxadiazole-2-yl)pyridine-2-yl)methyl)-3-methyl-5-(4-(methylsulfonyl)phenyl)-1,3-dihydro-2H-benzo[d]imidazole-2-one], in that order: 18 nM and greater than 10000 nM.
`Cn1c(=O)n(Cc2ccc(-c3nnc(C(F)F)o3)cn2)c2ccc(-c3ccn[nH]3)cc21` [Compound 221, 1-((5-(5-(difluoromethyl)-1,3,4-oxadiazole-2-yl)pyridine-2-yl)methyl)-3-methyl-5-(1H-pyrazole-5-yl)-1,3-dihydro-2H-benzo[d]imidazole-2-one]: the IC50 in test [1] was 8 nM; in test [2], greater than 10000 nM.
The matching figures for `Cn1nccc1-c1ccc2c(c1)n(C)c(=O)n2Cc1ccc(-c2nnc(C(F)F)o2)cn1` [Compound 222, 1-((5-(5-(difluoromethyl)-1,3,4-oxadiazole-2-yl)pyridine-2-yl)methyl)-3-methyl-5-(1-methyl-1H-pyrazole-5-yl)-1,3-dihydro-2H-benzo[d]imidazole-2-one]: 21 nM and greater than 10000 nM.
For `CN1CCC(n2c(=O)n(Cc3ccc(-c4nnc(C(F)F)o4)cn3)c3cc(F)c(-c4ccc(F)cc4F)cc32)CC1` [Compound 223, 1-((5-(5-(difluoromethyl)-1,3,4-oxadiazole-2-yl)pyridine-2-yl)methyl)-5-(2,4-difluorophenyl)-6-fluoro-3-(1-methylpiperidine-4-yl)-1,3-dihydro-2H-benzo[d]imidazole-2-one], the IC50 in test [1] is 16 nM; in test [2], greater than 10000 nM.
For the molecule `Cn1c(=O)n(Cc2ccc(-c3nnc(C(F)F)o3)cn2)c2cc(F)c(-c3cccc4[nH]ccc34)cc21` [Compound 224, 1-((5-(5-(difluoromethyl)-1,3,4-oxadiazole-2-yl)pyridine-2-yl)methyl)-6-fluoro-5-(1H-indole-4-yl)-3-methyl-1,3-dihydro-2H-benzo[d]imidazole-2-one], the figures for the IC50 in test [1] and in test [2] were 8 nM and greater than 10000 nM, respectively.
Turning to `Cn1c(=O)n(Cc2ccc(-c3nnc(C(F)F)o3)cn2)c2cc(F)c(-c3ccc(S(C)(=O)=O)cc3)cc21` [Compound 225, 1-((5-(5-(difluoromethyl)-1,3,4-oxadiazole-2-yl)pyridine-2-yl)methyl)-6-fluoro-3-methy 1-5-(4-(methylsulfonyl)phenyl)-1,3-dihydro-2H-benzo[d]imidazole-2-one], the IC50 in test [1] was 11 nM; in test [2] it was greater than 10000 nM.
For `Cn1ccc2cc(-c3cc4c(cc3F)n(Cc3ccc(-c5nnc(C(F)F)o5)cn3)c(=O)n4C)ccc21` [Compound 227, 1-((5-(5-(difluoromethyl)-1,3,4-oxadiazole-2-yl)pyridine-2-yl)methyl)-6-fluoro-3-methy 1-5-(1-methyl-1H-indole-5-yl)-1,3-dihydro-2H-benzo[d]imidazole-2-one], in that order: 32 nM and greater than 10000 nM.
On to `O=c1oc2cc(Cl)c(Br)cc2n1Cc1ccc(-c2nnc(C(F)F)o2)cn1` [Compound 228, 5-bromo-6-chloro-3-((5-(5-(difluoromethyl)-1,3,4-oxadiazole-2-yl)pyridine-2-yl)methyl)benzo[d]oxazole-2(3H)-one], for which the 50% inhibitory concentration (IC50) in test [1] is 47 nM; in test [2], greater than 10000 nM.
